Data on one compound can be found in US20260224732A1, “BIOPOLYMER PROTECTED OLIGONUCLEOTIDES FOR DRUG DELIVERY” (THE ROYAL INSTITUTION FOR THE ADVANCEMENT OF LEARNING / …, priority 2023, published 2026).

One data set concerns Epithelial cells. Briefly: Cellular viability with CA and CA-R mixes. The data set is classed as cell-based. The text has this:
Magnification of 10×, scale bar=100 μm, dapi in blue and factin in red.
Cellular viability. To be applicable in biological context, the toxicity of the CA and the combined CA-R mixes were verified. Epithelial cells were cultivated in media supplemented with various CA-R mixes and acidified at pH 6. Both the cellular viability and morphology was studied over a 5 day period.

For data set [1] the following is noted: cited from earlier work.

The term viability denotes the share of living cells, or the viability signal relative to a control. One may read the pKa as the pH at which an ionisable group is half protonated. Consider `O=c1[nH]c(=O)[nH]c(=O)[nH]1` [CA, cyanuric acid], for which the toxicity in vitro result in the data set with Epithelial cells is reported as “low toxicity”. Moreover, the viability in the data set on Epithelial cells (after 5 days, pH 6, CA 20 mM alone or CA 20 mM plus the named CA-R (CAC2NH2 30 mM, CAC6NH2 12 mM)) turned out to be 91±2%. The pKa in data set [1] is given as 6.9.
